These results are taken from patent US20040248867A1, “Novel anti-inflammatory 17α-heterocyclic-esters of 17βcarbothioate androstane derivatives” (priority 2001, published 2004).

This experiment has as its system progesterone receptor. Kind of experiment: Screen for progesterone receptor activity (T47D alkaline phosphatase); selectivity versus glucocorticoid receptor. The format is cell-based, human. The following applies: further experiments (additional data); ED50 at progesterone receptor divided by ED50 at glucocorticoid receptor. The method, then:
The human breast cancer cell line T47D has been reported to upregulate an endogenous alkaline phosphatase in response to progestins (Di Lorenzo et al., Cancer Research (1991) 51, 4470-4475. T47D cells were seeded into 96 well plates at a density of 1×10^5 cells per well and grown overnight at 37° C. Steroids were dissolved in DMSO, added to the cells (final DMSO concentration 0.7%), and incubated for 24 hours at 37° C. The cells were then washed with PBS and lysed with RIPA buffer (1% IGEPAL, 0.5% Na deoxycholate, 0.1% SDS in phosphate buffered saline). Alkaline phosphatase activity was measured spectrophotometrically (405 nm) using p-nitrophenylphosphate (1.5 mg/ml) as a substrate dissolved in 1M diethanolamine, 0.28M NaCl, 0.5 mM MgCl2. Dose response curves were constructed from which EC50 values were estimated.
Compounds were tested for progesterone activity in accordance with the above screen and the selectivity was determined by dividing the ED50 at the progesterone receptor by the ED50 at the glucocorticoid receptor.

In turn, `CC1CC2C3CC(F)C4=CC(=O)C=CC4(C)C3(F)C(O)CC2(C)C1(OC(=O)C1(C)OCCO1)C(=O)SCF` (stereo not drawn) [Example 11, 6α,9α-Difluoro-11β-hydroxy-16α-methyl-17α-(2-methyl-1,3-dioxolan-2-ylcarbonyl)oxy-3-oxo-androsta-1,4-diene-17β-carbothioic acid S-fluoromethyl ester] came in with a Selectivity of 1620.

In turn, `CCC(=O)O[C@]1(C(=O)SCF)[C@H](C)C[C@H]2[C@@H]3C[C@H](F)C4=CC(=O)C=C[C@]4(C)[C@@]3(F)[C@@H](O)C[C@@]21C` [Fluticasone propionate, 6α,9α-Difluoro-17α-(1-oxopropoxy)-11β-hydroxy-16α-methyl-3-oxo-androsta-1,4-diene-17β-carbothioic acid S-fluoromethyl ester, reference compound] showed a Selectivity of 82.

In turn, `CC1CC2C3CC(F)C4=CC(=O)C=CC4(C)C3(F)C(O)CC2(C)C1(OC(=O)C1(C)CCCO1)C(=O)SCF` (stereo not drawn) [Example 8B, 6α,9α-Difluoro-11β-hydroxy-16α-methyl-3-oxo-17-(2-methyl-tetrahydrofuran-2-ylcarbonyl)oxy-androsta-1,4-diene-17β-carbothioic acid S-fluoromethyl ester] returned a Selectivity of 63855.

As to `CC1CC2C3CC(F)C4=CC(=O)C=CC4(C)C3(F)C(O)CC2(C)C1(OC(=O)C1(C)CCCO1)C(=O)SCF` (stereo not drawn) [Example 8A, 6α,9α-Difluoro-11β-hydroxy-16α-methyl-3-oxo-17-(2-methyl-tetrahydrofuran-2-ylcarbonyl)oxy-androsta-1,4-diene-17β-carbothioic acid S-fluoromethyl ester], the Selectivity is given as 49425.

In turn, `CC1CC2C3CC(F)C4=CC(=O)C=CC4(C)C3(F)C(O)CC2(C)C1(OC(=O)C1CCCO1)C(=O)SCF` (stereo not drawn) [Example 2, 6α,9α-Difluoro-11β-hydroxy-16α-methyl-3-oxo-17α-(tetrahydrofuran-2R-ylcarbonyl)oxy-androsta-1,4-diene-17β-carbothioic acid S-fluoromethyl ester] came in with a Selectivity of 1099.

For the compound `CC1CC2C3CC(F)C4=CC(=O)C=CC4(C)C3(F)C(O)CC2(C)C1(OC(=O)C1(C)CCCS1)C(=O)SCF` (stereo not drawn) [Example 13A, 6α,9α-Difluoro-11β-hydroxy-16α-methyl-3-oxo-17α-(2-methyl-tetrahydrothiophen-2-ylcarbonyl)oxy-androsta-1,4-diene-17β-carbothioic acid S-fluoromethyl ester], the Selectivity is recorded as 2650.

Take `CC1CC2C3CC(F)C4=CC(=O)C=CC4(C)C3(F)C(O)CC2(C)C1(OC(=O)C1(C)CCCS1)C(=O)SCF` (stereo not drawn) [Example 13B, 6α,9α-Difluoro-11β-hydroxy-16α-methyl-3-oxo-17α-(2-methyl-tetrahydrothiophen-2-ylcarbonyl)oxy-androsta-1,4-diene-17β-carbothioic acid S-fluoromethyl ester]: the Selectivity is on record as 1955.

Turning to `CC1CC2C3CC(F)C4=CC(=O)C=CC4(C)C3(F)C(O)CC2(C)C1(OC(=O)C1SCCS1)C(=O)SCF` (stereo not drawn) [Example 4, 6α,9α-Difluoro-17α-(1,3-dithiolan-2-ylcarbonyl)oxy-11β-hydroxy-16α-methyl-3-oxo-androsta-1,4-diene-17β-carbothioic acid S-fluoromethyl ester], the Selectivity came to 1192.

`CC1CC2C3CC(F)C4=CC(=O)C=CC4(C)C3(F)C(O)CC2(C)C1(OC(=O)C1CSC1)C(=O)SCF` (stereo not drawn) [Example 6, 6α,9α-Difluoro-11β-hydroxy-16α-methyl-3-oxo-17α-(thietan-3-ylcarbonyl)oxy-androsta-1,4-diene-17β-carbothioic acid S-fluoromethyl ester] displayed a Selectivity of 500.
